In PMC10206061, “Suxiao Jiuxin Pill attenuates acute myocardial ischemia via regulation of coronary artery tone” (Frontiers in Pharmacology, 2023):
Read-outs that look alike come from different tables or passages of the source.

Target: T1, Akt1 (Homo sapiens, UniProt P31749)
T1 construct: recombinant human Akt1 protein (1775-KS-010, Bio-Techne)
Assay: SPR (Biacore T200, Akt1 amine-coupled on CM5 chip, […] steady-state fit)
Format: binding

T1 sequence (P31749 whole entry): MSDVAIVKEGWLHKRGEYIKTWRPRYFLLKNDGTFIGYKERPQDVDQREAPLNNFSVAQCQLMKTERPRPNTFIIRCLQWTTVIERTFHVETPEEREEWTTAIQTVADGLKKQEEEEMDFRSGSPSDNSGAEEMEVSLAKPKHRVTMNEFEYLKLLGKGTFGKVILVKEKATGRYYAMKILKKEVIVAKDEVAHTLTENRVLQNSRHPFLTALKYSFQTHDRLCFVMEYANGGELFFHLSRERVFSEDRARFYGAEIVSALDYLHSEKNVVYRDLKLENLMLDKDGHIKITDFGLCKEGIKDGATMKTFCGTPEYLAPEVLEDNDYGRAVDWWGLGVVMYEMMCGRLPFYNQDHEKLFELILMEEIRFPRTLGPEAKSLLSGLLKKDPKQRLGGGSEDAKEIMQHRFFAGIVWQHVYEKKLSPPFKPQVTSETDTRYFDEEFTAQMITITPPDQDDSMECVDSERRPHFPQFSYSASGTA

Q: For COc1cc2ccc(=O)oc2cc1O [scopoletin], which Kd (read-out: Kd) is on record?
A: Its Kd is 11.1 µM.

Q: CCCC[C@@H]1OC(=O)C2=C1CCC=C2 [senkyunolide A] was tested. Which Kd did it give?
A: Its Kd is 752 µM.
